Patent publication US8735129B2, “Ginsenoside glycosidase derived from the genus Terrabacter, and use thereof” (Korea Research Institute of Bioscience and Biotechnology, priority 2009, dated 2014)
“And” between values parts separate entries of the source, which are not always exact repeats. Identical values can stand only once. Like-named read-outs stand apart in the source and are kept apart here.

Experiments:
[1] = system: Bgl-gyp17; experiment: Substrate preference with chromogenic oNP and pNP glycosides; type: biochemical, Terrabacter ginsenosidimutans Gsoil 3082; settings: 2.0 mM substrate; for Relative activity (%): 50 mM sodium phosphate pH 7.0, 37° C., activity on ONPGlu = 100%
Procedure: 1 activity unit was defined as the release of o-nitrophenol or p-nitrophenol per minute. For analysis of substrate preference, 2.0 mM chromogenic oNP and pNP (p-nitrophenyl) were used as the substrates, and incubated at 37° C. for 5 minutes. The analyzed substrates (Sigma) were pNP-β-D-glucopyranoside, pNP-β-D-galactopyranoside, pNP-β-D-fucopyranoside, pNP-β-D-glucosaminide, pNP-β-L-arabinopyranoside, pNP-β-D-mannopyronoside, pNP-β-D-xylopyranoside, pNP-α-D-glucopyranoside, pNP-α-L-arabinopyranoside, pNP-α-L-arabinopyranoside, pNP-α-D-rhamnopyranoside, pNP-α-D-mannopyranoside, pNP-α-D-xylopyranoside, o-nitrophenol[oNP]-β-D-glucopyranoside, oNP-β-D-galactopyranoside, oNP-β-D-fucopyranoside, and oNP-β-D-galactopyranoside.
In order to examine the substrate specificity of Bgl-gyp17, it was incubated in 50 mM sodium phosphate buffer containing 2.0 mM βα and β-type p-NP (p-nitrophenyl) and oNP (O-nitrophenyl)-glycosidase at pH 7.0 and 37° C. […] The Km and Vmax for the hydrolysis of pNPGlc by ginsenoside glycosidase were determined using 0-2 mM substrate and the enzyme kinetics program reported by Cleland. The values measured by the program were 4.24 mM and 0.10 mmol*min^−1*mg of protein^−1 for pNpGlc.

[2] = system: recombinant Bgl-gyp17; experiment: Enzymatic hydrolysis of PPD-type ginsenosides (TLC, HPLC, NMR); type: biochemical, Terrabacter ginsenosidimutans Gsoil 3082; settings: 0.2 U enzyme, 50 mM sodium phosphate pH 7.0, 37° C., hydrolysis of glucoses at C-3
Procedure: In order to analyze the specificity and selectivity of the recombinant enzyme for the hydrolysis of glucose at the C-3 and C-20 positions of PPD-type ginsenoside, ginsenoside Rb1, Rb2, Rc, Rd, and Rg3 were used as substrates. Each reaction mixture containing 0.2 U enzyme, 50 mM sodium phosphate buffer 0.1% (w/v) (pH 7.0), and the substrate was incubated at 37° C. Each sample was withdrawn at regular intervals, and an equal volume of water-saturated butanol was added to stop the reaction. The n-butanol fraction was evaporated to dryness, and any residual material was dissolved in CH3OH and then examined by TLC HPLC or NMR analysis.

[3] = system: purified recombinant BGL-GYP17; experiment: Effects of metal ions and chemical agents on ginsenoside glycosidase activity (pNPGlc substrate); type: biochemical, Terrabacter ginsenosidimutans Gsoil 3082
[4] = orally administered into the human body; cited from earlier work
[5] = system: recombinant Bgl-gyp17; experiment: Enzymatic hydrolysis of PPD-type ginsenosides (TLC, HPLC, NMR); type: biochemical, Terrabacter ginsenosidimutans Gsoil 3082
[6] = 1 mM metal ion or reagent, 30 min at room temperature, pNPGlc substrate, 100% = 44.3 U/mg
[7] = 10 mM metal ion or reagent, 30 min at room temperature, pNPGlc substrate, 100% = 44.3 U/mg

With `O=[N+]([O-])c1ccc(OC2OCC(O)C(O)C2O)cc1` [pNP-β-L-binopyranoside] the “Relative activity (%)” value [1] was 0%.
With `O=[N+]([O-])c1ccc(O[C@@H]2OC[C@@H](O)[C@H](O)[C@H]2O)cc1` [pNP-β-D-xylopyranoside] the “Relative activity (%)” value [1] was 0%.
In the case of `O=[N+]([O-])c1ccc(O[C@@H]2O[C@H](CO)[C@@H](O)[C@H](O)[C@H]2O)cc1` [pNP-β-D-glucopyranoside, p-nitrophenyl-β-D-glucopyranoside], the “Relative activity (%)” value [1] is reported as 89.52 ± 4.430%.
For `CC(C)=CCC[C@](C)(O[C@@H]1O[C@H](CO)[C@@H](O)[C@H](O)[C@H]1O)[C@H]1CC[C@]2(C)[C@@H]1[C@H](O)C[C@@H]1[C@@]3(C)CC[C@H](O[C@@H]4O[C@H](CO)[C@@H](O)[C@H](O)[C@H]4O[C@@H]4O[C@H](CO)[C@@H](O)[C@H](O)[C@H]4O)C(C)(C)[C@@H]3CC[C@]12C` [Ginsenoside Rd], the “conversion of the ginsenoside by the enzyme (product)” value (“conversion … (product)” below) [2] was “converted into F2” and the “conversion … (product)” value ([2]; listed as Rd) was “C—K”.
For `[Cl-].[Na+]` [Nacl, NaCl], the “Relative activity (%)” value [3] was 102.3 ± 5.15% and 97.7 ± 4.51%.
With `C[C@H]1O[C@@H](Oc2ccc([N+](=O)[O-])cc2)[C@H](O)[C@@H](O)[C@H]1O` [pNP-β-D-fucopyranoside] the “Relative activity (%)” value [1] was 6.98 ± 0.063%.
In the case of `[Cl-].[Cl-].[Co+2]` [CoCl2], the “Relative activity (%)” value [3] is reported as 100.9 ± 8.43% and 97.0 ± 5.04%.
With `[Ca+2].[Cl-].[Cl-]` [CaCl2] the “Relative activity (%)” value [3, 6] was 91.8 ± 4.59% and the “Relative activity (%)” value [3, 7] was 101.5 ± 5.23%.
For `O=[N+]([O-])c1ccccc1O[C@@H]1O[C@H](CO)[C@H](O)[C@H](O)[C@H]1O` [oNP-β-D-galatopyranoside], the “Relative activity (%)” value [1] was 2.33 ± 0.081%.
In the case of `[Cl][Cu][Cl]` [CuCl2], the “Relative activity (%)” value [3, 6] is reported as 84.7 ± 4.48% and the “Relative activity (%)” value [3, 7] is reported as 71.7 ± 5.07%.
In the case of `O=[N+]([O-])c1ccccc1O[C@@H]1O[C@H](CO)[C@@H](O)[C@H](O)[C@H]1O` [oNP-β-D-glucopyranoside], the “Relative activity (%)” value [1] is reported as 100.00 ± 3.542% and the “activity toward substrate” value ([1]; pH 7.0, 37° C.) is reported as “highest activity”.
For `[Cl-].[K+]` [KCl], the “Relative activity (%)” value [3, 6] was 102.7 ± 4.65% and the “Relative activity (%)” value [3, 7] was 96.2 ± 4.64%.
For `O=[N+]([O-])c1ccc(O[C@@H]2OC[C@H](O)[C@H](O)[C@H]2O)cc1` [pNP-α-L-arabinopyranoside], the “Relative activity (%)” value [1] was 0%.
With `C[C@@H]1O[C@@H](Oc2ccc([N+](=O)[O-])cc2)[C@H](O)[C@H](O)[C@H]1O` [pNP-α-L-rhamnopyranoside] the “Relative activity (%)” value [1] was 0%.
With `O=[N+]([O-])c1ccccc1O[C@H]1O[C@H](CO)[C@H](O)[C@H](O)[C@H]1O` [oNP-α-D-galactopyranoside] the “Relative activity (%)” value [1] was 0%.
In the case of `CC(C)=CCC[C@](C)(O[C@@H]1O[C@H](CO)[C@@H](O)[C@H](O)[C@H]1O)[C@H]1CC[C@]2(C)[C@@H]1[C@H](O)C[C@@H]1[C@@]3(C)CC[C@H](O)C(C)(C)[C@@H]3[C@@H](O[C@@H]3O[C@H](CO)[C@@H](O)[C@H](O)[C@H]3O[C@@H]3O[C@@H](C)[C@H](O)[C@@H](O)[C@H]3O)C[C@]12C` [Re], the in vivo absorption [4] is given as “very low in vivo absorption”.
In the case of `CC(C)=CCC[C@](C)(O[C@@H]1O[C@H](CO[C@@H]2O[C@H](CO)[C@@H](O)[C@H](O)[C@H]2O)[C@@H](O)[C@H](O)[C@H]1O)[C@H]1CC[C@]2(C)[C@@H]1[C@H](O)C[C@@H]1[C@@]3(C)CC[C@H](O)C(C)(C)[C@@H]3CC[C@]12C` [gyp LXXV, gypenoside LXXV], the “conversion … (product)” value [2] is reported as “C—K”, the “time at which it started to appear” value ([5]; Rb1 substrate, enzyme 1 mg/ml) is reported as 10 min and the “time of decrease to almost undetectable level” value ([5]; Rb1 substrate, enzyme 1 mg/ml) is reported as 24 h. For the same compound, the “time of maximum level” value ([5]; Rb1 substrate, enzyme 1 mg/ml) was 2 h.
With `O=[N+]([O-])c1ccc(O[C@H]2O[C@H](CO)[C@@H](O)[C@H](O)[C@@H]2O)cc1` [pNP-α-D-mannopyranoside] the “Relative activity (%)” value [1] was 0%.
With `CCCCCCCCCCCCOS(=O)(=O)[O-].[Na+]` [SDS] the “concentration showing an inhibitory effect” value [3] was no less than 10 mM, the “Relative activity (%)” value [3, 6] was 94.8 ± 6.98% and the “Relative activity (%)” value [3, 7] was 2.7 ± 3.22%.
With `CC(C)=CCC[C@](C)(O[C@@H]1O[C@H](CO)[C@@H](O)[C@H](O)[C@H]1O)[C@H]1CC[C@]2(C)[C@@H]1[C@H](O)C[C@@H]1[C@@]3(C)CC[C@H](O)C(C)(C)[C@@H]3CC[C@]12C` [compound K] the “time at which the final product was produced” value ([5]; Rb1 substrate, enzyme 1 mg/ml) was 24 h.
With `[Cl-].[Cl-].[Mg+2]` [MgCl2] the “Relative activity (%)” value [3, 6] was 94.8 ± 5.10% and the “Relative activity (%)” value [3, 7] was 95.2 ± 5.14%.
In the case of `O=C(O)CN(CCN(CC(=O)O)CC(=O)O)CC(=O)O` [EDTA], the “Relative activity (%)” value [3, 6] is reported as 98.6 ± 6.49% and the “Relative activity (%)” value [3, 7] is reported as 96.6 ± 4.52%.
For `OCCS` [Beta-Mercaptoethanol], the “Relative activity (%)” value [3, 6] was 98.4 ± 4.89% and the “Relative activity (%)” value [3, 7] was 102.5 ± 4.57%.
With `[Cl][Mn][Cl]` [MnCl2] the “Relative activity (%)” value [3, 6] was 101.1 ± 5.45% and the “Relative activity (%)” value [3, 7] was 96.9 ± 4.79%.
In the case of `O[C@@H](CS)[C@@H](O)CS` [DTT], the “Relative activity (%)” value [3, 6] is reported as 96.7 ± 5.59% and the “Relative activity (%)” value [3, 7] is reported as 96.6 ± 5.14%.
In the case of `O=[N+]([O-])c1ccc(O[C@@H]2O[C@@H](CO)[C@H](O)[C@H]2O)cc1` [pNP-α-L-arabinofuranoside], the “Relative activity (%)” value [1] is reported as 0%.
For `O=[N+]([O-])c1ccc(O[C@H]2O[C@H](CO)[C@@H](O)[C@H](O)[C@H]2O)cc1` [pNP-α-D-glucopyranoside], the “Relative activity (%)” value [1] was 1.12 ± 0.214%.
In the case of `[Cl-].[Cl-].[Zn+2]` [ZnCl2], the “Relative activity (%)” value [3, 6] is reported as 92.8 ± 4.72% and the “Relative activity (%)” value [3, 7] is reported as 72.8 ± 4.27%.
With `CC(C)=CCC[C@](C)(O)[C@H]1CC[C@]2(C)[C@@H]1[C@H](O)C[C@@H]1[C@@]3(C)CC[C@H](O[C@@H]4O[C@H](CO)[C@@H](O)[C@H](O)[C@H]4O[C@@H]4O[C@H](CO)[C@@H](O)[C@H](O)[C@H]4O)C(C)(C)[C@@H]3CC[C@]12C` [ginsenoside Rg3] the “conversion … (product)” value [2] was “produced ginsenoside Rh2” and the “conversion … (product)” value ([2]; listed as Rg3) was “PPD”.
In the case of `C[C@H]1O[C@@H](Oc2ccccc2[N+](=O)[O-])[C@H](O)[C@@H](O)[C@H]1O` [oNP-β-D-fucopyranoside], the “Relative activity (%)” value [1] is reported as 15.88 ± 0.544%.
For `[Cl][Hg][Cl]` [Hg^2+, HgCl2], the “effect on Bgl-gyp17 activity” value [3] was “strongly inhibited the activity”.
In the case of `O=[N+]([O-])c1ccc(O[C@@H]2O[C@H](CO)[C@H](O)[C@H](O)[C@H]2O)cc1` [pNP-β-D-glactopyranoside], the “Relative activity (%)” value [1] is reported as 0%.
For `CC(C)=CCCC(C)(OC1OC(COC2OCC(O)C(O)C2O)C(O)C(O)C1O)C1CCC2(C)C1C(O)CC1C3(C)CCC(OC4OC(CO)C(O)C(O)C4O)C(C)(C)C3CCC12C` (centres unmarked) [C—O, compound O], the “conversion … (product)” value [2] was “C—Y”.
For `N[C@H]1[C@H](Oc2ccc([N+](=O)[O-])cc2)O[C@H](CO)[C@@H](O)[C@@H]1O` [pNP-β-D-glucosaminide], the “Relative activity (%)” value [1] was 0%.
With `O=[N+]([O-])c1ccc(O[C@@H]2O[C@H](CO)[C@@H](O)[C@H](O)[C@@H]2O)cc1` [pNP-β-D-mannopyranoside] the “Relative activity (%)” value [1] was 0%.
In the case of `CC(C)=CCC[C@](C)(O[C@@H]1O[C@H](CO[C@@H]2O[C@H](CO)[C@@H](O)[C@H](O)[C@H]2O)[C@@H](O)[C@H](O)[C@H]1O)[C@H]1CC[C@]2(C)[C@@H]1[C@H](O)C[C@@H]1[C@@]3(C)CC[C@H](O[C@@H]4O[C@H](CO)[C@@H](O)[C@H](O)[C@H]4O)C(C)(C)[C@@H]3CC[C@]12C` [gyp XVII, gypenoside XVII], the “conversion … (product)” value [2] is reported as “C—K” and the “conversion of the ginsenoside” value ([5]; printed: when ginsenoside Rb1 was 0.1 mg/ml) is reported as “subsequently converted into gyp LXXV”.
For `CC(C)=CCC[C@](C)(O[C@@H]1O[C@H](CO[C@@H]2O[C@@H](CO)[C@H](O)[C@H]2O)[C@@H](O)[C@H](O)[C@H]1O)[C@H]1CC[C@]2(C)[C@@H]1[C@H](O)C[C@@H]1[C@@]3(C)CC[C@H](O[C@@H]4O[C@H](CO)[C@@H](O)[C@H](O)[C@H]4O)C(C)(C)[C@@H]3CC[C@]12C` [C-Mc1, compound Mc1], the “conversion … (product)” value [2] was “C-Mc”.
For `CC(C)=CCC[C@](C)(O[C@@H]1O[C@H](CO)[C@@H](O)[C@H](O)[C@H]1O)[C@H]1CC[C@]2(C)[C@@H]1[C@H](O)C[C@@H]1[C@@]3(C)CC[C@H](O)C(C)(C)[C@@H]3[C@@H](O[C@@H]3O[C@H](CO)[C@@H](O)[C@H](O)[C@H]3O)C[C@]12C` [Rg1], the in vivo absorption [4] is given as “very low in vivo absorption”.
